Columns and labels:
[1] = system: MDA-MB-231 tumors; assay: In vivo testing, MDA-MB-231-iRFP xenograft: imaging, image-guided tumor removal, relative biodistribution; design: species or system female nude mice; conditions: I.V. injection of 10 nmol ICG (free or fHNP), 24 hours
Experimental: Twelve to fourteen week old female nude mice (Jackson Labs) were injected subcutaneously with 2×10^6) MDA-MB-231 cells in 50/50 media/matrigel. MDA-MB-231 cells were transfected with NIR fluorescent protein (iRFP). When the tumors reached 500-1000 mm^3, 10 nmol ICG or fHNP (10 wt % PBA was the hydrophobic ligand in this case) was injected into a tail vein. After 24 hours the mice were euthanized and imaged whole using a LI-COR Pearl Impulse system, which has a “700 nm” channel that can detect iRFP-labeled cell and an “800 nm” channel that can detect ICG or Cy7.5. Mice then underwent image-guided tumor removal with the fluorescence image-guided surgical system method. First, skin was removed to expose the breast tumor xenograft. […] Mice were then re-imaged on the LI-COR system to compare area identified as tumor by the fluorescence image-guided surgical system with iRFP labeled tumors. This was followed by necropsy, further image acquisition for the overall estimation of relative ICG biodistribution, and preparation of tissues for histology.

[2] = system: ectopic 4T1 breast tumor; assay: ICG detection in tumor with the fluorescence image-guided surgical system; assay type: in vivo, mouse; conditions: 0.357 mg/kg ICG via tail vein, 24 hours, laser excitation directed at the tumor
Experimental: In this experiment, 0.357 mg/kg ICG was systemically administered via a tail vein. After 24 hours, the mouse was euthanized and tumor fluorescence enhancement was assessed by using the fluorescence image-guided surgical system method. When the laser excitation source of fluorescence image-guided surgical system method is directed off the tumor (FIG. 9A,B), no fluorescence enhancement of the tumor is seen. […] This example uses a breast tumor model.

For `CC1(C)C(/C=C/C=C/C=C/C=C2\N(CCCCS(=O)(=O)O)c3ccc4ccccc4c3C2(C)C)=[N+](CCCCS(=O)(=O)[O-])c2ccc3ccccc3c21` [ICG, Indocyanine green], the Tumor signal enhancement [1] was “tumor signal enhancement” and the Tumor fluorescence enhancement [2] was “strong fluorescence signal”.
